# Source: US20240197236A1, “ELECTRO-ANATOMIC CARDIAC REPOLARIZATION MAPPING” (University Health Network, priority 2022, published 2024)
# Test system: rabbit heart
# Assay: Rabbit heart Langendorff, simultaneous optical mapping and epicardial electrode-grid mapping of repolarization duration
# Details: after 20 uM addition of pinacidil to the perfusate
# Method: A study was performed to adapt a rabbit heart Langendorff optical mapping model^42 to add the recording of electrical EGMs to a commercially-available electrode array lab (Advisor […] catheter, Abbott Laboratories), after its use in the clinical laboratory for animal use. This involved using a UHN research mapping system in which unipolar EGMs from a 16-electrode grid were used to record cardiac signals with a proprietary mapping system (described previously as UHN Cartesian Mapping System^43) at a sampling rate of 1 kHz. This electrode array was chosen as spacing between the splines allowed recording of the fluorescence from the voltage-sensitive dye RH237. Fluorescence was recorded with a high-speed CMOS camera (Ultima-L, SciMedia, Costa Mesa, CA) at a rate of 500 frames/s. […] A derivative of the vectorcardiogram was obtained by projecting the repolarization loop along its maximum axis where the projection may be called a loop optimized rEGM (i.e., which is a type of repolarization-optimized EGM that in this case is determined using the loop method described with respect to FIG. 5C). A measurement of repolarization duration, called APD^v, was measured from the onset of QRS to baseline return of the loop rEGM. It was hypothesized that rEGM provides vector-derived integrated action potential duration (APD^v) that correlates with local repolarization assessed by optical mapping. […]
structure (smiles),measurement,setting,value
"CC(N/C(=N\C#N)Nc1ccncc1)C(C)(C)C (centres unmarked) [Pinacidil, pinacidil]",APD (optical APD90 from fluorescence),baseline APD90 151 ms,89 ms
same,ARI (repolarization duration from loop rEGM),baseline APD^v average 142 ms,68 ms
